Measured values taken from PMC12206033, “Selective inhibition of TRPV3 channel by natural rosmarinic acid and its analogs for alleviation of skin lesions through downregulation of NF-κB pathway” (The Journal of Biological Chemistry, 2025).
Read-outs that look alike come from different tables or passages of the source.

Tests used:
[1] = test system: TRPV3, IL-6, TNF-α, and p-P65 protein expressions; assay: Western blot of TRPV3 and NF-κB pathway proteins in mouse ear tissues; format: in vivo; settings: topical ROSA 0.1, 1 and 10 mM; mouse ear tissues; day 5
Procedure: Skin sensitizer Car was dissolved in saline solution containing 30% ethanol. The dorsal skin or ear of mice was swabbed with 3% Car for four consecutive days. To investigate the effects of ROSA, it was diluted to concentration of 0.1/1/10 mM with saline and topically applied on the ear and dorsal skin once a day for 4 days. The control group only received swabs with the solvent.
Skin or ear skin tissues were homogenized in radioimmunoprecipitation assay buffer (Thermo Fisher Scientific) containing protease inhibitors at a ratio of 100:1 per 10 mg tissue and centrifuged at 15,000 rpm for 15 min. The protein concentration was quantified using a bicinchoninic acid kit (Thermo Fisher Scientific), followed by SDS-PAGE for Western blot analysis. Protein transfer was performed at 150 mA for 90 min, and the transferred membranes (Millipore) were incubated with primary antibodies (TRPV3 antibody, 1:1000, TNF-α antibody, 1:1000, IL-6 antibody, 1:2500, P65 antibody, 1:1000 and p-P65 antibody, 1:1000) in 5% skim milk (Becton, Dickinson and Company). […] Images were quantified using the Image Lab software (https://www.bio-rad.com/zh-cn/product/image-lab-software?ID=KRE6P5E8Z).

hTRPV4 = molecular target: T1, hTRPV4 (Homo sapiens, UniProt Q9HBA0); assay: whole-cell patch-clamp of hTRPV4 currents activated by GSK101; format: cell-based; settings: ROSA 50 μM; agonist GSK101 100 nM; read-out: inhibition of TRPV4 currents
T1 construct: expressed in transfected cells; host or cells: HEK293T
Procedure: HEK293T cell line was obtained from the Cell Resource Center, Peking Union Medical College. HEK293T cells were maintained in Dulbecco’s modified Eagle’s medium (DMEM, Gibco) supplemented with 10% fetal bovine serum at 37 °C with 5% CO2. […] The next day, determine the plasmid transfection status by observing green fluorescence based on expression of enhanced GFP as an indicator. […] When conducting experiments on HEK293T cells transfected with G573S point mutant TRPV3 plasmid, we replaced culture medium with or without compounds after 4 h of transfection and then observed green fluorescence of HEK293T cell after 10 h. As for the relative fluorescence intensity, we convert the image to 8 bit grayscale using ImageJ (Https://imagej.net/software/fiji/downloads) and set an appropriate threshold value to reduce background noise and enhance the image contrast.
All patch-clamp recordings were conducted 16 to 24 h after transfection using an EPC10 amplifier powered by PatchMaster software (HEKA) (https://www.heka.com/downloads/downloads_main.html#down_patchmaster) at room temperature. […] Currents were recorded at a potential ramp from −100 mV to +100 mV for 1000 ms with 1000-ms intervals (for whole-cell recordings) or a persistent potential of −60 mV (inside-out patch recordings). […]

hTRPV3 = molecular target: T2, hTRPV3 (Homo sapiens, UniProt Q8NET8); assay: whole-cell patch-clamp of hTRPV3 currents in HEK293T cells activated by 2-APB; format: cell-based; settings: for inhibition at 50 µM: agonist 2-APB 50 μM
T2 construct: expressed in transfected cells; host or cells: HEK293T
T2 sequence (Q8NET8 1-790): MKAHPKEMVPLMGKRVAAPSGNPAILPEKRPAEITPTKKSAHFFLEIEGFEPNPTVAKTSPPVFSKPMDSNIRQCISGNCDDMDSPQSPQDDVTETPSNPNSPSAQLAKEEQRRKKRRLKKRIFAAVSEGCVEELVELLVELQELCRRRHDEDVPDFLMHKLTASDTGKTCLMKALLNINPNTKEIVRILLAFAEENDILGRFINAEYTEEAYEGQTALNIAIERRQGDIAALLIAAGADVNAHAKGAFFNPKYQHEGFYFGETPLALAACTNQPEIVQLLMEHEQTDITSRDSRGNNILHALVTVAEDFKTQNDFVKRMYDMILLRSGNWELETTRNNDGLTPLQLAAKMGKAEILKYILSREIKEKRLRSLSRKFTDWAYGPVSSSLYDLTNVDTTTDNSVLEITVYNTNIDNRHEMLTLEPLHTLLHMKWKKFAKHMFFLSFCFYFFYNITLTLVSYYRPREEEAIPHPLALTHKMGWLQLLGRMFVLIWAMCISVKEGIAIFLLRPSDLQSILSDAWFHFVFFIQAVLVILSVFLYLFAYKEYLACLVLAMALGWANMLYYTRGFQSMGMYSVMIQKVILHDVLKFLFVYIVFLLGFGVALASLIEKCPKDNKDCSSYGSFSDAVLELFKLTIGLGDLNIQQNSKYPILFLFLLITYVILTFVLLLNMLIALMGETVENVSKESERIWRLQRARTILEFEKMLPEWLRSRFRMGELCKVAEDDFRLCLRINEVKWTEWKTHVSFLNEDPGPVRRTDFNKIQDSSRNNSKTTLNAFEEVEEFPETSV
Procedure: HEK293T cell line was obtained from the Cell Resource Center, Peking Union Medical College. HEK293T cells were maintained in Dulbecco’s modified Eagle’s medium (DMEM, Gibco) supplemented with 10% fetal bovine serum at 37 °C with 5% CO2. HEK293T cells were seeded onto glass coverslips 1 day in advance and transiently transfected with […] complementary deoxyribonucleic acids of human TRPV3 (hTRPV3, accession number NM_145068.4), hTRPV1 (accession number NM_080704.3), mTRPV2 (accession number NM_011706.2), hTRPV4 (accession number NM_021625.5), hTRPA1 (accession number NM_007332.3), and hTRPM8 (accession number NM_024080.5) through Lipofectamine 2000 (Invitrogen) following the manufacture’s protocol. The next day, determine the plasmid transfection status by observing green fluorescence based on expression of enhanced GFP as an indicator. All WT or mutant hTRPV3 complementary deoxyribonucleic acid plasmids were confirmed by DNA sequencing. When conducting experiments on HEK293T cells transfected with G573S point mutant TRPV3 plasmid, we replaced culture medium with or without compounds after 4 h of transfection and then observed green fluorescence of HEK293T cell after 10 h. As for the relative fluorescence intensity, we convert the image to 8 bit grayscale using ImageJ (Https://imagej.net/software/fiji/downloads) and set an appropriate threshold value to reduce background noise and enhance the image contrast.
All patch-clamp recordings were conducted 16 to 24 h after transfection using an EPC10 amplifier powered by PatchMaster software (HEKA) (https://www.heka.com/downloads/downloads_main.html#down_patchmaster) at room temperature. The borosilicate glass pipettes were pulled using a DMZ universal electrode puller (Zeitz-Instruments GmbH) to achieve the resistances of three to 5 MΩ (for whole-cell recordings) or five to 9 MΩ (for inside-out patch recordings). Currents were recorded at a potential ramp from −100 mV to +100 mV for 1000 ms with 1000-ms intervals (for whole-cell recordings) or a persistent potential of −60 mV (inside-out patch recordings). Both pipette solution and bath solution contained (in mM): 130 NaCl, 3 Hepes, and 0.2 EDTA (pH = 7.2–7.4). All recording data were analyzed using Igor Pro (Wave-metrics) (https://www.wavemetrics.com/order/order_igordownloads.htm) and Origin 8.6 (Origin Lab) (https://www.originlab.com/doc/zh/Quick-Help/Download-Installer).

T1 sequence (Q9HBA0 whole entry): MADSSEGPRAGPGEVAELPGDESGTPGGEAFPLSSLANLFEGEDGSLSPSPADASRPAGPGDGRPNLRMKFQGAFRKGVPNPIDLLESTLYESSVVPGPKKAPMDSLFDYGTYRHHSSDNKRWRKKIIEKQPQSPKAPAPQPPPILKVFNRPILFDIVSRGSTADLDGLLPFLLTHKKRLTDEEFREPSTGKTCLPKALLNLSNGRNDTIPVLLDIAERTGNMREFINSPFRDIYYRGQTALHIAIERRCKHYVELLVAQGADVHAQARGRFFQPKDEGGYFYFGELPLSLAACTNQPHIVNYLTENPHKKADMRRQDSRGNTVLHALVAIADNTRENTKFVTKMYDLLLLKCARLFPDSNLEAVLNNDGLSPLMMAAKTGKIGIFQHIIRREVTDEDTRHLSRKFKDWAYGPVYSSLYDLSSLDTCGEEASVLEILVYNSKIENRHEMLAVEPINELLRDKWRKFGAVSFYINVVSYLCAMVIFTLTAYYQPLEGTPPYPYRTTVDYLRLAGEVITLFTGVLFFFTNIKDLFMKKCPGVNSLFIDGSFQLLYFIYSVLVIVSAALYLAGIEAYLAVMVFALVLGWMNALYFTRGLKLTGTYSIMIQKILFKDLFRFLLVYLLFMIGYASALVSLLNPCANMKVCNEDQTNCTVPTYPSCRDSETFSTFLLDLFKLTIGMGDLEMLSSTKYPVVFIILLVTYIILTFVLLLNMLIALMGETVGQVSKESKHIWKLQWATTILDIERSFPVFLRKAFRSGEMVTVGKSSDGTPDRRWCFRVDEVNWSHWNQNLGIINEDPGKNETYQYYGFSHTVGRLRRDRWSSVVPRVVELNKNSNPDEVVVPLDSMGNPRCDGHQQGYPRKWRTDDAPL

Question: How did the “protein expressions of TRPV3, IL-6, TNF-α, and p-P65 induced by Car” value [1] turn out when O=C(/C=C/c1ccc(O)c(O)c1)O[C@H](Cc1ccc(O)c(O)c1)C(=O)O [ROSA, rosmarinic acid] was run?
Answer: The value was “downregulated the upregulation”.

Question: And the inhibition at 50 µM (hTRPV4)?
Answer: Its inhibition at 50 µM is 2 ± 7.3%.

Question: What about the IC50 (hTRPV3) of the same compound?
Answer: Its IC50 is 12.4 ± 4.2 µM.

Question: What about the inhibition at 50 µM (hTRPV3; HEK-293T, ROSA 50 μM, Fig. 2G, read-out: inhibition of TRPV3 currents) of the same compound?
Answer: The inhibition at 50 µM was roughly 74.3%.

Question: What about the inhibition at 100 µM (hTRPV3; HEK-293T, ROSA 100 μM, 2-APB, WT, read-out: inhibition of macroscopic WT hTRPV3 currents) of the same compound?
Answer: The inhibition at 100 µM was 87%.

Question: And the inhibition at 50 µM (hTRPV3; HEK-293T, compound 50 μM, Fig. 3I, n = 4-5, read-out: inhibition of hTRPV3 currents)?
Answer: The inhibition at 50 µM was roughly 75.3%.
